According to patent US6861439B2, “Treatment of cerebrovascular disease” (Medicure International, Inc., priority 2000, dated 2005):

Legend:
[1] = test system: rat model of cerebral ischemia; experiment: Rat model of cerebral ischemia: neurological deficit evaluation (neurobehavioral scores); format: in vivo, Male Wistar rats; settings: scale 0-4, evaluation at 2 and 24 hours after thrombus
Description: (§1) Male Wistar rats (250-300 g) were housed in the animal facility for a period of 12 days and given food and water ab libitum. Animals were randomly assigned to groups (n=8/group) of a) control group b) post-ischemia PLP treatment 10 mg/kg c) post-ischemia PLP treatment […] and d) post-ischemia PLP treatment 40 mg/kg.
(§2) The rats of each group were anaesthetized to surgical depth initially with 3% halothane, and maintained with 1.5% halothane in a 70% N2O/30% O2 (vol./vol.) mixture. Animal core temperature was maintained at approx 37° C. using a heating pad and an overhead lamp. Temperature was measured with a rectal thermometer.
(§3) A midline longitudinal incision of approx 2.0 cm was made in the cervical area. Both common carotid arteries (CCA) were dissected from the surrounding tissue and both the right internal carotid artery (ICA) and the right external carotid artery (ECA) were exposed to a maximal length. Branches of the right ECA will be occluded with electro-coagulation and the distal portion ligated. The right CCA and ICA were occluded by temporary clamping, after which the distal end of the ECA was cut to allow catheter insertion. A loose 5.0 silk suture was tied around the proximal right ECA. A PE-50 catheter [Becton-Dickinson, N.J., USA] (0.3 mm O.D at the tip of the catheter and O.D. 0.97 in the catheter body) was attached to a […] filled with 0.5 ml bovine alpha-thrombin (Thrombostat, Parke-Davis).
(§4) The catheter was introduced into the ICA from the ECA and CCA via a small puncture and the silk suture tied around the ECA to prevent bleeding and dislodgement. This was followed by the removal of vascular clips from the ICA and CCA. 10 ul of blood was withdrawn into the catheter and kept in place for 15 minutes for formation of a thrombin clot. Subsequently 17 mm of the catheter (calculated from the puncture site) was gently advanced through the ECA and extra-cranial portion of the ICA to approximately 2 mm from the origin of the middle cerebral artery. After temporary occlusion of the CCAs bilaterally to slow blood flow, the clot was introduced into the ICA. The clip of the contralateral CCA was removed five minutes later and the catheter was removed 10 minutes after the clot introduction. The ipsilateral ICA was then ligated prior to the removal of the clip on the right CCA, 15 minutes after clot injection. The incision was then sutured and the animals allowed to recover from anesthesia whereupon they were given free access to food & water.
Neurological deficit evaluation was conducted at 2 and 24 hours after injection of thrombus. The neurological findings were scored on a four-point grade scale: no observable deficit—0; forelimb flexion—1; forelimb flexion and decreased resistance to lateral push—2; forelimb flexion, decreased lateral push resistance and unilateral circling in three successive trials—3. A score of 4 was given to animals with a score of 3 plus decreased consciousness.
(§5) Control animals were given 3 mL saline (iv) at 2 hours following cerebral ischemia. The pre-ischemia treatment group was given PLP (10 mg/kg, iv in 3 mL) over 30 minutes 1 hour prior to ischemic insult. The post-ischemia groups received PLP at […] iv at 2 hours following cerebral ischemia.
All data was expressed as mean±SD. Two-tailed paired Students t-tests were used to compare differences between values obtained before and after treatment. Statistical analysis of more than two groups of animals were performed with ANOVA, with subsequent individual comparisons by Scheffe's test. Differences were considered significant at […].

[2] = test system: rat model of cerebral ischemia; experiment: Rat model of cerebral ischemia: seizures, hemorrhage and mortality; settings: for mortality (number of animals): n=8/group, 2 in control group
[3] = test system: rat model of cerebral ischemia; experiment: Rat model of cerebral ischemia: measurement of infarct damage (TTC staining); format: in vivo, Male Wistar rats; settings: for Infarct Volume (mean): post-ischemia PLP iv, 24 hours after ischemia, control group 37.74%
Description: as §1, §2, §3, §4
The infarcted brain tissue in the right MCA territory was differentiated using the 2,3,5-triphenyltetrazolium chloride (TTC) staining method. The rats were perfused transcardially with 120 ml 0.9% normal saline under deep anaesthesia, 24 hours after ischemia. The brain was then removed and cooled in ice-cold saline for 5 minutes after which it was dissected in the coronal plane at 2 mm intervals using a rat brain matrix and stored in 10% buffered formalin for fixing. The stained sections were colour scanned within seven days. The 2 mm thick coronal sections were placed directly on the scanning screen and scanned from rostral to caudal ends, with attention paid to soaking up formalin to prevent shadows, and the use of a black background.
Image contrast and brightness was adjusted with Photoshop 4.0; measurements were made by manually outlining the margins of infarct areas in each section. The total volume of infarction was determined by integrating the […] of the eight chosen sections. Values were corrected for any brain edema.
as §5
All data was expressed as mean±SD. […]

[4] = in water, alcohol, and ether; cited from earlier work

Cc1ncc(COP(=O)(O)O)c(C=O)c1O [PLP, 3-hydroxy-2-methyl-5-[(phosphonooxy)methyl]-4-pyridine-carboxaldehyde]
Neurobehavioral score, final (decreased to) ([1]; 10 mg/kg group): 3 | Neurobehavioral score, initial (decreased from) ([1]; 10 mg/kg group): 3.6 | Neurobehavioral score, final (decreased to) ([1]; 20 mg/kg group): 3 | Neurobehavioral score, initial (decreased from) ([1]; 20 mg/kg group): 3.8 | Neurobehavioral score, final (decreased to) ([1]; 40 mg/kg group, p<0.001): 1.9 | Neurobehavioral score, initial (decreased from) ([1]; 40 mg/kg group, p<0.001): 3.8 | mortality (number of animals) ([2]; 10 mg/kg group): 3 | mortality (number of animals) ([2]; 20 mg/kg group): 1 | mortality (number of animals) ([2]; 40 mg/kg group): 0 | number of seizures ([2]; the three groups (10, 20, 40 mg/kg)): no difference | risk of hemorrhage ([2]; with higher doses): did not increase | Infarct Volume (mean) ([3]; 10 mg/kg treatment group): 28.25%, | Infarct Volume (mean) ([3]; 20 mg/kg treatment group): 27.4%, | infarct reduction, statistical significance ([3]; 40 mg/kg dose): statistically significant | Infarct Volume (mean) ([3]; 40 mg/kg treatment group): 19.3%, | therapeutic effect on infarct size and neurobehavioral activity ([3]; 10, 20, 40 mg/kg): dose-dependant therapeutic effect | anti-ischemic effect in the rat model of ischemia and reperfusion injury ([3]; overall conclusion): demonstrates anti-ischemic effects and benefits against ischemia reperfusion injury | solubility [4]: essentially insoluble
